Assay results: US20220204539A1, “CD73 INHIBITORS” (BioArdis LLC, priority 2019, published 2022)

Experiments:
[1] = molecular target: T1, Cell surface CD73 of U87 MG human glioblastoma cells (Homo sapiens, UniProt P21589); test: CD73 Cellular Assay; format: cell-based; settings: 5000 cells per well, 30 μM AMP substrate, read-out: Potency (IC50, CD73 cellular assay)
T1 construct: Cell surface CD73 catalyzes the conversion of adenosine monophosphate (AMP) to adenosine and inorganic phosphate; endogenous in cells; host or cells: U87 MG human glioblastoma cells
T1 sequence (P21589 27-549): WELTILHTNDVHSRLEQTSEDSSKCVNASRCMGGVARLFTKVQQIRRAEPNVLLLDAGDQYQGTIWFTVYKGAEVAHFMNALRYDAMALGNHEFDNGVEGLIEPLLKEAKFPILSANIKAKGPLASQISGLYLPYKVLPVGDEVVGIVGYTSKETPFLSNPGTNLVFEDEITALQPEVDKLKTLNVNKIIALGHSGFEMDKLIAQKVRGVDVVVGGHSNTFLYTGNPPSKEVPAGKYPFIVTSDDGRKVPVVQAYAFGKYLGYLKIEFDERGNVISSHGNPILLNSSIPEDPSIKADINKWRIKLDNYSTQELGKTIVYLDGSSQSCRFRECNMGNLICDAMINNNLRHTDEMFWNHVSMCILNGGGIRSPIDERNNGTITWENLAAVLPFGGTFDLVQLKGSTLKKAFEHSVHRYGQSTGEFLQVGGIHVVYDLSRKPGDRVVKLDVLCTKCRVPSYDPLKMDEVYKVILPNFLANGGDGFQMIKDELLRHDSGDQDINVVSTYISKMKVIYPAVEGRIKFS
Procedure, shortened: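 U87 MG cells (5000/well) preincubated with compound 30 min at 37 °C, 5% CO2, in HEPES-buffered saline pH 7.4 with 0.5% DMSO, then 30 μM AMP (final) for 50 min. Released phosphate in supernatant read colorimetrically at 635 nm; IC50 from four-parameter logistic fit versus cells-plus-substrate and cells-only controls.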

[2] = molecular target: T2, Recombinant Human 5′-Nucleotidase (CD73) (Homo sapiens, UniProt P21589); test: CD73 Enzyme Assay; format: biochemical; settings: human CD73 0.5 nM, AMP 30 μM, PiColorLock phosphate detection; read-out: Potency (IC50, CD73 enzyme assay)
T2 construct: CHO derived CD73 (Trp27-Lys547), with a C-terminal 6-His tag; 6-His (C); purchased R&D 5795-EN; host or cells: CHO
T2 sequence (P21589 27-547): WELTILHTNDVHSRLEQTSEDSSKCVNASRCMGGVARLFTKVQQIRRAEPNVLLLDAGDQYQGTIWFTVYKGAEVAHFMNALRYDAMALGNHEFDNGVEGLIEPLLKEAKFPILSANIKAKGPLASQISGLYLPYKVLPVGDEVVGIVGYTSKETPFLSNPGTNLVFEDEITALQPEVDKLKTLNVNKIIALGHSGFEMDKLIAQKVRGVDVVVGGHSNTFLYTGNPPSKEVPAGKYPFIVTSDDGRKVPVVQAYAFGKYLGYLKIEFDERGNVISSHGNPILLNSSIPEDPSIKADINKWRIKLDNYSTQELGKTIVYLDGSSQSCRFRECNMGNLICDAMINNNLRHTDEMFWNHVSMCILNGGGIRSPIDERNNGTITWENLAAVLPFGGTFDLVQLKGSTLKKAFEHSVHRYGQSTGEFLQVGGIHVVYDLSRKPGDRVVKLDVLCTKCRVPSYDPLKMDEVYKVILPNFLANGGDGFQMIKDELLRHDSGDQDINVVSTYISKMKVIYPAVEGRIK
Procedure, shortened: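 Human CD73 (CHO-derived Trp27-Lys547, His-tagged; 0.5 nM final) was preincubated with compound for 15 min at 25° C. in Tris pH 7.5 buffer with MgCl2. It then reacted with 30 μM AMP for 20 min at 37° C., and released phosphate was read by malachite green absorbance at 635 nm. IC50 came from four-parameter fits against enzyme and no-enzyme controls.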

SMILES	IC50 [1] [nM]	IC50 [2] [nM]
O=P(O)(O)CP(=O)(O)OC[C@H]1O[C@@H](c2cnc3c(NC4CC5CCC4C5)nc(Cl)nn23)[C@H](O)[C@@H]1O (stereo partly drawn) [Compound 50, [({[(2R,3S,4R,5S)-5-(4-{bicyclo[2.2.1]heptan-2-ylamino}-2-chloroimidazo[2,1-f][1,2,4]triazin-7-yl)-3,4-dihydroxyoxolan-2-yl]methoxy}(hydroxy)phosphoryl)methyl]phosphonic acid]	< 1	< 10
C[C@H](Nc1nc(Cl)nn2c([C@@H]3O[C@H](COP(=O)(O)CP(=O)(O)O)[C@@H](O)[C@H]3O)cnc12)c1ccc(F)c(F)c1 [Compound 52, (((((2R,3S,4R,5S)-5-(2-chloro-4-(((S)-1-(3,4-difluorophenyl)ethyl)amino)imidazo[2,1-f][1,2,4]triazin-7-yl)-3,4-dihydroxytetrahydrofuran-2-yl)methoxy)(hydroxy)phosphoryl)methyl) phosphonic acid]	< 1	< 10
C[C@H](Nc1nc(Cl)nn2c([C@@H]3O[C@H](COP(=O)(O)CP(=O)(O)O)[C@@H](O)[C@H]3O)cnc12)c1ccc(Cl)c(Cl)c1 [Compound 53, (((((2R,3S,4R,5S)-5-(2-chloro-4-(((S)-1-(3,4-dichlorophenyl)ethyl)amino)imidazo[2,1-f][1,2,4]triazin-7-yl)-3,4-dihydroxytetrahydrofuran-2-yl)methoxy)(hydroxy)phosphoryl)methyl)phosphonic acid]	< 1	< 10
C[C@H](Nc1nc(Cl)nn2c([C@@H]3O[C@H](COP(=O)(O)CP(=O)(O)O)[C@@H](O)[C@H]3O)cnc12)c1ccc(Cl)cc1 [Compound 54, (((((2R,3S,4R,1S)-5-(2-chloro-4-(((S)-1-(4-chlorophenyl)ethyl)amino)imidazo[2,1-f][1,2,4]triazin-7-yl)-3,4-dihydroxytetrahydrofuran-2-yl)methoxy)(hydroxy)phosphoryl)methyl)phosphonic Acid]	< 1	< 10
O=P(O)(O)CP(=O)(O)OC[C@H]1O[C@@H](c2cnc3c(N4CCC[C@H]4c4ccccc4F)nc(Cl)nn23)[C@H](O)[C@@H]1O [Compound 55, (((((2R,3S,4R,1S)-5-(2-chloro-4-((S)-2-(2-fluorophenyl)pyrrolidin-1-yl)imidazo[2,1-f][1,2,4]triazin-7-yl)-3,4-dihydroxytetrahydrofuran-2-yl)methoxy)(hydroxy)phosphoryl)methyl)phosphonic Acid]	< 1	< 10
O=P(O)(O)CP(=O)(O)OC[C@H]1O[C@@H](c2cnc3c(N4CCCC[C@H]4c4ccccc4)nc(Cl)nn23)[C@H](O)[C@@H]1O [Compound 56, (((((2R,3S,4R,1S)-5-(2-chloro-4-((S)-2-phenylpiperidin-1-yl)imidazo[2,1-f][1,2,4]triazin-7-yl)-3,4-dihydroxytetrahydrofuran-2-yl)methoxy)(hydroxy)phosphoryl)methyl)phosphonic Acid]	< 1	< 10
N#Cc1nc(NC2CCCC2)c2ncc([C@@H]3O[C@H](COP(=O)(O)CP(=O)(O)O)[C@@H](O)[C@H]3O)n2n1 [Compound 62, (((((2R,3S,4R,5S)-5-(2-cyano-4-(cyclopentylamino)imidazo[2,1-f][1,2,4]triazin-7-yl)-3,4-dihydroxytetrahydrofuran-2-yl)methoxy)(hydroxy)phosphoryl)methyl)phosphonic Acid]	< 1	< 10
O=P(O)(O)CP(=O)(O)OC[C@H]1O[C@@H](c2cnc3c(N[C@H]4CCc5ccccc54)nc(Cl)nn23)[C@H](O)[C@@H]1O [Compound 63, [({[(2R,3S,4R,5S)-5-{2-chloro-4-[(1S)-2,3-dihydro-1H-inden-1-ylamino]imidazo[2,1-f][1,2,4]triazin-7-yl}-3,4-dihydroxyoxolan-2-yl]methoxy}(hydroxy)phosphoryl)methyl] phosphonic acid]	< 1	< 10
